For one data set, the system named is general viable cells. Put plainly: comparative test for detecting microorganisms on sheet media for detecting general viable cells. Type of data set: cell-based. Conditions: food samples (meat, precut vegetables, delicatessens); sheet medium with 0.03 g/m^3 reagent; 35° C.; 24 hours incubation vs 48 hours for 2,3,5-triphenyltetrazolium chloride. The procedure:
Next, the results obtained by a comparative test for detecting microorganisms using the chromogenic reagent of Example 1 and the chromogenic reagent of Comparative Example are described below. The comparative test was performed as follows. First, sheet media for detecting general viable cells containing as the chromogenic reagent 0.03 g/m^3 each of tetrazolium compound A of Example 1 and 2,3,5-triphenyltetrazolium chloride of Comparative Example, respectively, were prepared. The sheet media for general viable cells were the same except that the chromogenic reagents were different.
Then, 10 g of either one of meat, precut vegetables, delicatessens, etc. was put into a sterilized bag and 100 ml of sterile saline was added thereto. The mixture was homogenized with a stomacher. […]
The sheet medium of Example 1 for detecting general viable cells containing the chromogenic reagent was incubated for 24 hours and the sheet medium for detecting general viable cells containing the chromogenic reagent for comparison was incubated for 48 hours, respectively, both at 35° C. The viable cell counts were compared between the count of viable cells visually detected by the chromogenic reagent of Example 1 and the count of viable cells detected by the chromogenic reagent of Comparative Example. […]

Data set [1] in a line: absorption wavelength and colour of the formazan dye formed from the tetrazolium compound. Conditions: formazan dye produced by reduction of the tetrazolium compound. Type of data set: physicochemical.

Each structure is given as a SMILES string.

Regarding `COc1ccccc1-n1nc(-c2ccccc2)n[n+]1-c1ccc([N+](=O)[O-])cc1.[Cl-]` [tetrazolium compound A, 2-(2-Methoxyphenyl)-3-(4-nitrophenyl)-5-phenyltetrazolium chloride], the “number of colonies (viable cell count) visually detected, compared with the chromogenic reagent of Comparative Example” value in the data set with general viable cells is “almost the same number or more of colonies were detected”. Also, in data set [1], the “colour developed by the formazan dye” value was “blue to bluish purple” and the “peak of absorption wavelength of the formazan dye formed” value is “approximately 410 nm”.

Regarding `COc1cc([N+](=O)[O-])ccc1-n1nc(-c2ccccc2)n[n+]1-c1ccc([N+](=O)[O-])cc1.[Cl-]` [tetrazolium compound B, 2-(2-Methoxy-4-nitrophenyl)-3-(4-nitrophenyl)-5-phenyltetrazolium chloride], the “number of colonies (viable cell count) visually detected, compared with the chromogenic reagent of Comparative Example” value in the data set on general viable cells was “the colonies were detected in the same number as in or more than”. Also, in data set [1], the “colour developed by the formazan dye” value is on record as “blue to bluish purple” and the “peak of absorption wavelength of the formazan dye formed” value was “approximately 410 nm”.

The values above are taken from US11022556B2, “Tetrazolium compound for detecting microorganisms, reagent for detecting microorganisms and method for detecting microorganisms” (JNC CORPORATION, priority 2010, dated 2021).
